Assay results from patent US20190021380A1 (priority 2014, published 2019).
pEC50: −log10 of the molar value. Counter-ions that a name gives are not always drawn. Like-named read-outs stand apart in the source and are kept apart here.

Columns and labels:
cat T1R1/T1R3 receptor = cat T1R1/T1R3 receptor (Felis catus, UniProt E3UMS2); assay: cell-based; conditions: for pEC50: in the presence of 20 mM alanine, read-out: EC50-with Ala; for function as activators of T1R1/T1R3: in the presence of alanine, in words
Excerpt: (§1) HEK293 cells that stably express T1R3 and inducibly express T1R1 were exposed to nucleotide derivatives alone or in combination with one or more amino acids and/or one or more nucleotides to activate the umami receptor. Activation of the T1R1/T1R3 receptor was detected by a change in intracellular calcium levels using a calcium sensitive fluorescent dye and/or a luminescent reporter system. Cells that express T1R3 but not T1R1 were used as a control. A FLIPR® Tetra or a FlexStation® 3 was used for data capture.

T1R1/T1R3 receptor = T1R1/T1R3 receptor (Felis catus, UniProt E3UMS2); assay: cell-based; type: cell-based; conditions: for Max resp % of Ala +IMP (0.2 mM): relative to Ala; for Max resp ΔF/F +Alanine (20 mM) / Thres (mM) +Alanine (20 mM) / Max resp % of IMP +Alanine (20 mM): in the presence of 20 mM alanine; for Max resp % of IMP +Alanine (20 mM): relative to IMP; for activation of T1R1/T1R3 by the compound alone: in words
Excerpt: as §1, with “transmembrane compounds” for “nucleotide derivatives”, “dye.” for “dye and/or a luminescent reporter system.”
In each experiment, serial dilutions of up to 10 mM of the transmembrane compound were added to the T1R1/T1R3-expressing cells.

[1] = EC50 (mM) +IMP (0.2 mM), in the presence of 0.2 mM IMP
[2] = compound alone in buffer, read-out: EC50 (mM) +buffer (alone)

Row | Compound | Max resp ΔF/F +IMP (0.2 mM) (T1R1/T1R3 receptor; in the presence of 0.2 mM IMP) | Thres (mM) +IMP (0.2 mM) (T1R1/T1R3 receptor; in the presence of 0.2 mM IMP) [mM] | Max resp % of Ala +IMP (0.2 mM) (T1R1/T1R3 receptor; in the presence of 0.2 mM IMP) [%] | Max resp ΔF/F +Alanine (20 mM) (T1R1/T1R3 receptor) | Thres (mM) +Alanine (20 mM) (T1R1/T1R3 receptor) [mM] | Max resp % of IMP +Alanine (20 mM) (T1R1/T1R3 receptor) [%] | other results
1 | O=c1ccn([C@H]2O[C@@H](COP(=O)(O)O)[C@H](O)[C@@H]2O)c(=O)[nH]1 (stereo in doubt) [Uridine 5′-monophosphate disodium salt, reference compound] |  |  |  |  |  |  | Thres (cat T1R1/T1R3 receptor): 3.000 mM
2 | O=P(O)(O)OC[C@H]1O[C@@H](n2cnc3c(Cl)ncnc32)C(O)C1O (some centres unmarked) [6-Chloropurineriboside-5′-O-monophosphate] |  |  |  |  |  |  | Thres (cat T1R1/T1R3 receptor): 0.0005 mM
3 | O=C(Nc1ncnc2c1ncn2[C@@H]1O[C@H](COP(=O)(O)O)[C@@H](O)[C@H]1O)c1ccccc1 |  |  |  |  |  |  | Thres (cat T1R1/T1R3 receptor): 0.3 mM; EC50 (cat T1R1/T1R3 receptor; EC50 (mM), + Alanine (20 mM), Table 15): > 1 mM; Max resp % of IMP (cat T1R1/T1R3 receptor; hek293 cells): 105.6 % of IMP
4 | Nc1nc2c(ncn2[C@@H]2O[C@H](COP(=O)(O)OP(=O)(O)O)[C@@H](O)[C@H]2O)c(=O)[nH]1 [Guanosine 5′-diphosphate sodium salt, Guanosine 5′-diphosphate] |  |  |  |  |  |  | Thres (cat T1R1/T1R3 receptor): 0.050 mM
5 | Nc1ncnc2c1ncn2C1OC(COP(O)(O)=S)C(O)C1O (centres unmarked) |  |  |  |  |  |  | Activity (cat T1R1/T1R3 receptor): active; Thres (cat T1R1/T1R3 receptor): 0.003 mM; Max resp % of IMP (cat T1R1/T1R3 receptor; hek293 cells): 128.4 % of IMP
6 | O=c1[nH]c(=O)c2ncn([C@@H]3O[C@H](COP(=O)(O)O)[C@@H](O)[C@H]3O)c2[nH]1 [xanthosine monophosphate, reference compound] |  |  |  |  |  |  | Thres (cat T1R1/T1R3 receptor): 0.025 mM
7 | Nc1nc2c(ncn2[C@H]2C[C@H](OP(=O)(O)O)[C@@H](COP(=O)(O)O)O2)c(=O)[nH]1 [2′-Deoxyguanosine-3′,5′-O-bisphosphate] |  |  |  |  |  |  | Activity (cat T1R1/T1R3 receptor): active; Max resp ΔF/F (cat T1R1/T1R3 receptor): 1.8925 ΔF/F; Max resp. (ΔF/F) (cat T1R1/T1R3 receptor): 1.8925 ΔF/F; Thres (cat T1R1/T1R3 receptor): 0.005 mM; Threshold (cat T1R1/T1R3 receptor): 0.005 mM; Max resp % of IMP (cat T1R1/T1R3 receptor; hek293 cells): 152.3 % of IMP; Max. resp. % of IMP (cat T1R1/T1R3 receptor; hek293 cells): 152.3 % of IMP; pEC50 (cat T1R1/T1R3 receptor): 4.70; function as activators of T1R1/T1R3 (cat T1R1/T1R3 receptor): activators of T1R1/T1R3
8 | O=P(O)(O)OCC1OC(n2cnc3c(Cl)ncnc32)C(O)C1O (centres unmarked) [6-chloropurineriboside-5′-O-monophosphate] |  |  |  |  |  |  | function as activators of T1R1/T1R3 (cat T1R1/T1R3 receptor): activators of the T1R1/T1R3 receptor
9 | Nc1nc2c(ncn2[C@@H]2O[C@H](COP(=O)(O)OP(=O)(O)OP(=O)(O)O)[C@@H](O)[C@H]2O)c(=O)[nH]1 [Guanosine 5′-triphosphate] |  |  |  |  |  |  | Activity (cat T1R1/T1R3 receptor): active; Thres (cat T1R1/T1R3 receptor): 0.175 mM
10 | CSc1ccc(-c2nnn(Cc3ccccn3)n2)cc1 [2-((5-(4-(methylthio)phenyl)-2H-tetrazol-2-yl)methyl)pyridine] | 0.678 | 0.1575 | 80.7 |  |  |  | 
11 | NC(=O)c1ncn(C2OC(COP(=O)(O)O)C(O)C2O)c1N (centres unmarked) |  |  |  |  |  |  | EC50 (cat T1R1/T1R3 receptor; EC50-with Ala (mM)): > 1 mM
12 | CCC(CC)NC(=O)c1ccc(Br)o1 [5-bromo-N-(pentan-3-yl)furan-2-carboxamide] | 1.8425 | 0.3 | 149.6 | 1.575 | 1 | 126.8 | 
13 | O=C(CN1C(=O)C(=O)N(Cc2ccccc2)C1=O)c1ccccc1 [1-benzyl-3-(2-oxo-2-phenylethyl)imidazolidine-2,4,5-trione] | 1.140 | 0.08 | 135.7 | 1.3 | 1 | 127.6 | 
14 | O=C(NCCc1ccccc1)C(=O)NCc1cccnc1 [N1-phenethyl-N2-(pyridin-3-ylmethyl)oxalamide] | 0.7625 | 0.1 | 61.9 | 0.3750 | 1 | 30.2 | 
15 | NC1NC(=O)c2ncn([C@H]3O[C@@H](COP(=O)(O)O)[C@H](O)[C@@H]3O)c2N1 (some centres unmarked) |  |  |  |  |  |  | pEC50 (cat T1R1/T1R3 receptor): 4.52
16 | CCOC(=O)C(NC(=O)c1ccc2c(c1)OCO2)C(C)C (centres unmarked) [ethyl 2-(benzo[d][1,3]dioxole-5-carboxamido)-3-methylbutanoate] | 0.65 | 1 | 52.8 | 0.3175 | 10 | 25.6 | pEC50 (T1R1/T1R3 receptor): < 2.00; EC50 (T1R1/T1R3 receptor; [1]): > 3 mM; EC50 (T1R1/T1R3 receptor; [2]): > 10 mM
17 | O=C(Nc1ccccc1Br)N[C@@H]1c2ccccc2C[C@@H]1O (stereo in doubt) [1-(2-bromophenyl)-3-((1R,2S)-2-hydroxy-2,3-dihydro-1H-inden-1-yl)urea] | 0.378 | 3 | 44.9 | 0.3 | 3 | 33.0 | 
18 | CCCC(CCC)C(=O)Nc1ccc2c(c1)OCO2 [N-(benzo[d][1,3]dioxol-5-yl)-2-propylpentanamide] | 0.908 | 0.0675 | 108.0 |  |  |  | activation of T1R1/T1R3 by the compound alone (T1R1/T1R3 receptor): agonist of T1R1/T1R3 alone
19 | COC(=O)C(NC(=O)/C=C/c1cccs1)C(C)C (centres unmarked) [(E)-methyl 3-methyl-2-(3-(thiophen-2-yl)acrylamido)butanoate] | 0.7375 | 1 | 59.9 | 0.1175 | 10 | 9.5 | 
20 | COc1cc(C(=O)NC(C(N)=O)c2ccccc2)cc(Cl)c1OC (centres unmarked) [N-(2-amino-2-oxo-1-phenylethyl)-3-chloro-4,5-dimethoxybenzamide] | 0.415 | 0.17 | 49.4 |  |  |  | activation of T1R1/T1R3 by the compound alone (T1R1/T1R3 receptor): failed to activate T1R1/T1R3 alone
21 | CCCC(C)NC(=O)/C=C/c1ccc(OC)c(OC)c1 (centres unmarked) [(E)-3-(3,4-dimethoxyphenyl)-N-(pentan-2-yl)acrylamide] | 1.07 | 0.55 | 86.9 | 0.4375 | 1 | 35.2 | pEC50 (T1R1/T1R3 receptor): < 2.00; EC50 (T1R1/T1R3 receptor; [1]): 2.2 mM; EC50 (T1R1/T1R3 receptor; [2]): > 10 mM
22 | CCCC(C)NC(=O)c1ccc(OC)c(C)c1 (centres unmarked) [4-methoxy-3-methyl-N-(pentan-2-yl)benzamide] | 1.5875 | 0.025 | 128.9 | 1.5650 | 0.050 | 126.0 | 
23 | CCC(CC)NC(=O)c1ccc2c(c1)OCCO2 [N-(pentan-3-yl)-2,3-dihydrobenzo[b][1,4]dioxine-6-carboxamide] | 0.8725 | 0.075 | 70.9 | 0.3125 | 0.3 | 25.2 | 
24 | COc1ccc(C(=O)NC(C)c2ccccc2)cc1C (centres unmarked) [4-methoxy-3-methyl-N-(1-phenylethyl)benzamide] | 1.1775 | 0.35 | 95.6 | 0.51 | 3 | 41.0 | 
25 | CCC(CC)NC(=O)/C=C/c1ccc(OC)cc1 [(E)-3-(4-methoxyphenyl)-N-(pentan-3-yl)acrylamide] | 1.443 | 0.0375 | 171.7 | 0.7 | 0.148 | 64.1 | 
26 | CCC(CC)NC(=O)c1ccc(C)c(C)c1 [3,4-dimethyl-N-(pentan-3-yl)benzamide] | 1.5475 | 0.525 | 125.7 | 1.2150 | 3 | 97.8 | 
27 | CC1CCCC(NC(=O)c2ccc3c(c2)OCO3)C1C (centres unmarked) [N-(2,3-dimethylcyclohexyl)benzo[d][1,3]dioxole-5-carboxamide] | 1.175 | 0.275 | 95.4 | 0.225 | 3 | 18.1 | 
28 | CCC(CC)NC(=O)c1ccc(OC)c(OC)c1 [3,4-dimethoxy-N-(pentan-3-yl)benzamide] | 0.9975 | 0.5 | 81.0 | 0.545 | 0.3 | 43.9 | 
29 | COc1ccc(/C=C/C(=O)NC2CCCCC2C)cc1 (centres unmarked) [(E)-3-(4-methoxyphenyl)-N-(2-methylcyclohexyl)acrylamide] | 1.7725 | 0.3 | 144.0 | 0.785 | 3 | 63.2 | 
